From ChEMBL document CHEMBL3808304, “Design, Synthesis, and Biological Evaluation of Indoline and Indole Derivatives as Potent and Selective α1A-Adrenoceptor Antagonists” (J Med Chem, 2016)

Assays:
Type in all cases: ADME, organism-based
[1] = Tmax in rat at 20 mg/kg, po; conditions: in vivo
[2] = Tmax in rat at 10 mg/kg, iv; conditions: in vivo
[3] = Cmax in rat at 20 mg/kg, po; set-up: dose 20 mg/kg, route oral; conditions: in vivo
[4] = Cmax in rat at 10 mg/kg, iv; set-up: dose 10 mg/kg, route intravenous; conditions: in vivo
[5] = AUC (0 to infinity) in rat at 20 mg/kg, po; set-up: dose 20 mg/kg, route oral, time infinity; conditions: in vivo
[6] = AUC (0 to infinity) in rat at 10 mg/kg, iv; set-up: dose 10 mg/kg, time infinity, route intravenous; conditions: in vivo
[7] = MRT in rat at 20 mg/kg, po; conditions: in vivo
[8] = MRT in rat at 10 mg/kg, iv; conditions: in vivo
[9] = Half life in rat at 20 mg/kg, po; conditions: in vivo
[10] = Half life in rat at 10 mg/kg, iv; conditions: in vivo
[11] = Apparent clearance in rat at 10 mg/kg, iv; conditions: in vivo, read-out: CL(app) (converted)
[12] = Oral bioavailability in rat at 20 mg/kg; conditions: in vivo

Tmax [1] | Tmax [2] | Cmax [3] | Cmax [4] | AUC(0-inf) [5] | AUC(0-inf) [6] | MRT [7] | MRT [8] | half-life [9] | half-life [10] | clearance [11] | bioavailability [12] | Compound
0.5 h | 4.98 min | 109 ng/mL | 2430 ng/mL | 613 ng·h/mL | 4400 ng·h/mL | 3.54 h | 2.94 h | 1.22 h | 1.1 h | 37.9 mL/min/kg | 7% | Cc1ccc(OCC(F)(F)F)c(OCCN[C@H](C)Cc2cc(C(N)=O)c3c(ccn3CCCO)c2)c1
4 h | 4.98 min | 152 ng/mL | 3000 ng/mL | 1700 ng·h/mL | 3510 ng·h/mL | 6.22 h | 2.34 h | 4.67 h | 1.63 h | 47.5 mL/min/kg | 24.3% | C[C@H](Cc1cc2c(c(C(N)=O)c1)N(CCCO)CC2)NCCOc1cc(Cl)ccc1OCC(F)(F)F
